PubChem BioAssay AID1919009 (Molecular Pharmacology Branch, DTP, NCI, 2023)

System: K24384-001-R-PDC complex spheroid growth
Assay: Anticancer human tumor K24384-001-R-PDC patient-derived pancreatic adenocarcinoma cell line growth inhibition [AhR]
Details: for viability, T/C: stronger effect = lower value
Method in brief: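 Spheroids combined tumor cells with HUVEC endothelial cells and human MSCs as stroma. AhR antagonists were paired with standard or investigational drugs, each dosed in half-log steps down from near clinical Cmax, or from 10 microM where Cmax was unknown.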

[1] = curve of first compound, second compound 0.1 µM
[2] = curve of first compound, second compound 0.316 µM
[3] = curve of first compound, second compound 1 µM
[4] = curve of first compound, second compound 3.16 µM
[5] = curve of first compound, second compound 10 µM
[6] = second compound 0.1 µM, first compound 0.0316 µM
[7] = second compound 0.1 µM, first compound 0.1 µM
[8] = second compound 0.1 µM, first compound 0.316 µM
[9] = second compound 0.1 µM, first compound 1 µM
[10] = second compound 0.1 µM, first compound 3.16 µM
[11] = second compound 0.1 µM, first compound 10 µM
[12] = second compound 0.316 µM, first compound 0.0316 µM
[13] = second compound 0.316 µM, first compound 0.1 µM
[14] = second compound 0.316 µM, first compound 0.316 µM
[15] = second compound 0.316 µM, first compound 1 µM
[16] = second compound 0.316 µM, first compound 3.16 µM
[17] = second compound 0.316 µM, first compound 10 µM
[18] = second compound 1 µM, first compound 0.0316 µM
[19] = second compound 1 µM, first compound 0.1 µM
[20] = second compound 1 µM, first compound 0.316 µM
[21] = second compound 1 µM, first compound 1 µM
[22] = second compound 1 µM, first compound 3.16 µM
[23] = second compound 1 µM, first compound 10 µM
[24] = second compound 3.16 µM, first compound 0.0316 µM
[25] = second compound 3.16 µM, first compound 0.1 µM
[26] = second compound 3.16 µM, first compound 0.316 µM
[27] = second compound 3.16 µM, first compound 1 µM
[28] = second compound 3.16 µM, first compound 3.16 µM
[29] = second compound 3.16 µM, first compound 10 µM
[30] = second compound 10 µM, first compound 0.0316 µM
[31] = second compound 10 µM, first compound 0.1 µM
[32] = second compound 10 µM, first compound 0.316 µM
[33] = second compound 10 µM, first compound 1 µM
[34] = second compound 10 µM, first compound 3.16 µM
[35] = second compound 10 µM, first compound 10 µM
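Throughout, for viability, T/C: percent of DMSO vehicle-treated spheroid viability set as 100%.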

For COc1cccc2c1C(=O)c1c(O)c3c(c(O)c1C2=O)CC(O)(C(=O)CO)CC3OC1CC(N)C(O)C(C)O1 (stereo unspecified) + Cc1cncc(-c2nc(NCCc3c[nH]c4ccccc34)c3ncn(C(C)C)c3n2)c1, the IC50 [1] was 43.2 nM, the IC50 [2] was under 31.6 nM and the IC50 [3] was 42.2 nM. It also gave an IC50 [4] of under 31.6 nM, an IC50 [5] of under 31.6 nM and a viability, T/C [6] of 56.2%. The viability, T/C [7] was 32.3%, the viability, T/C [8] was 22% and the viability, T/C [9] was 6.38%. It also gave a viability, T/C [10] of 2.85%, a viability, T/C [11] of 7.5% and a viability, T/C [12] of 43.8%. The viability, T/C [13] was 39.4%, the viability, T/C [14] was 18.6% and the viability, T/C [15] was 4.66%. For the same compound, the viability, T/C [16] was 4.69%, the viability, T/C [17] was 7.35% and the viability, T/C [18] was 53.4%. For the same compound, the viability, T/C [19] was 39.8%, the viability, T/C [20] was 14.4% and the viability, T/C [21] was 4.5%. For the same compound, the viability, T/C [22] was 2.69%, the viability, T/C [23] was 5.17% and the viability, T/C [24] was 41.2%. The viability, T/C [25] was 35.8%, the viability, T/C [26] was 10.2% and the viability, T/C [27] was 2.01%. The viability, T/C [28] was 3.75%, the viability, T/C [29] was 5.63% and the viability, T/C [30] was 6.65%. The viability, T/C [31] was 10.3%, the viability, T/C [32] was 4.38% and the viability, T/C [33] was 1.31%. The viability, T/C [34] was 1.89% and the viability, T/C [35] was 2.29%.

Compound Nc1ccccc1NC(=O)c1ccc(CNC(=O)OCc2cccnc2)cc1 + CC(CO)NC(=O)c1cc(-c2ccc(Cl)cc2)nn(-c2cnn(C)c2)c1=O has an IC50 [1] of 1960 nM, an IC50 [2] of 1350 nM and an IC50 [3] of 1180 nM. It also gave an IC50 [4] of 987 nM, an IC50 [5] of 572 nM and a viability, T/C [6] of 100%. The viability, T/C [7] was 101%, the viability, T/C [8] was 88.2% and the viability, T/C [9] was 60.9%. For the same compound, the viability, T/C [10] was 41.8%, the viability, T/C [11] was 6.28% and the viability, T/C [12] was 87.6%. The viability, T/C [13] was 97.7%, the viability, T/C [14] was 80.6% and the viability, T/C [15] was 53.2%. It also gave a viability, T/C [16] of 31.8%, a viability, T/C [17] of 4.37% and a viability, T/C [18] of 88.2%. It also gave a viability, T/C [19] of 94.8%, a viability, T/C [20] of 92.1% and a viability, T/C [21] of 47.4%. It also gave a viability, T/C [22] of 28.8%, a viability, T/C [23] of 4.21% and a viability, T/C [24] of 83.7%. The viability, T/C [25] was 92.4%, the viability, T/C [26] was 79% and the viability, T/C [27] was 44.6%. For the same compound, the viability, T/C [28] was 24.2%, the viability, T/C [29] was 1.77% and the viability, T/C [30] was 70.9%. The viability, T/C [31] was 72.8%, the viability, T/C [32] was 55.9% and the viability, T/C [33] was 40.5%. It also gave a viability, T/C [34] of 25.1% and a viability, T/C [35] of 0.88%.

Compound CC(C)CC(NC(=O)C(Cc1ccccc1)NC(=O)c1cnccn1)B(O)O (stereo unspecified) + CC(CO)NC(=O)c1cc(-c2ccc(Cl)cc2)nn(-c2cnn(C)c2)c1=O has an IC50 [1] of 6.57 nM, an IC50 [2] of 7.16 nM and an IC50 [3] of 6.54 nM. For the same compound, the IC50 [4] was 5.58 nM, the IC50 [5] was 6.03 nM and the viability, T/C (second compound 0.1 µM, first compound 0.000949 µM) was 118%. It also gave a viability, T/C (second compound 0.1 µM, first compound 0.003 µM) of 110%, a viability, T/C (second compound 0.1 µM, first compound 0.00949 µM) of 22% and a viability, T/C (second compound 0.1 µM, first compound 0.03 µM) of 0.35%. It also gave a viability, T/C (second compound 0.1 µM, first compound 0.0949 µM) of 0.73%, a viability, T/C (second compound 0.1 µM, first compound 0.3 µM) of 0.34% and a viability, T/C (second compound 0.316 µM, first compound 0.000949 µM) of 133%. It also gave a viability, T/C (second compound 0.316 µM, first compound 0.003 µM) of 125%, a viability, T/C (second compound 0.316 µM, first compound 0.00949 µM) of 25.6% and a viability, T/C (second compound 0.316 µM, first compound 0.03 µM) of 0.68%. The viability, T/C (second compound 0.316 µM, first compound 0.0949 µM) was 0.25%, the viability, T/C (second compound 0.316 µM, first compound 0.3 µM) was 0.3% and the viability, T/C (second compound 1 µM, first compound 0.000949 µM) was 108%. The viability, T/C (second compound 1 µM, first compound 0.003 µM) was 108%, the viability, T/C (second compound 1 µM, first compound 0.00949 µM) was 22.2% and the viability, T/C (second compound 1 µM, first compound 0.03 µM) was 0.35%. For the same compound, the viability, T/C (second compound 1 µM, first compound 0.0949 µM) was 0.3%, the viability, T/C (second compound 1 µM, first compound 0.3 µM) was 0.35% and the viability, T/C (second compound 3.16 µM, first compound 0.000949 µM) was 83.6%. For the same compound, the viability, T/C (second compound 3.16 µM, first compound 0.003 µM) was 99.2%, the viability, T/C (second compound 3.16 µM, first compound 0.00949 µM) was 14.6% and the viability, T/C (second compound 3.16 µM, first compound 0.03 µM) was 0.34%. It also gave a viability, T/C (second compound 3.16 µM, first compound 0.0949 µM) of 0.32%, a viability, T/C (second compound 3.16 µM, first compound 0.3 µM) of 0.31% and a viability, T/C (second compound 10 µM, first compound 0.000949 µM) of 107%. It also gave a viability, T/C (second compound 10 µM, first compound 0.003 µM) of 110%, a viability, T/C (second compound 10 µM, first compound 0.00949 µM) of 12% and a viability, T/C (second compound 10 µM, first compound 0.03 µM) of 0.84%. The viability, T/C (second compound 10 µM, first compound 0.0949 µM) was 0.35% and the viability, T/C (second compound 10 µM, first compound 0.3 µM) was 0.9%.

CC(CO)NC(=O)c1cc(-c2ccc(Cl)cc2)nn(-c2cnn(C)c2)c1=O (stereo unspecified) gave an IC50 (compound alone, run of 05/31/2022) of over 10000 nM.
